Data as given in patent publication US12673084B2, “Compositions and methods for combinatorial drug discovery in nanoliter droplets” (The Broad Institute, Inc., priority 2017, dated 2026).
Starred links: 1 amine or outer side, 2 acyl side, 3 side chain; linkers in the order of their positions; H or OH if unused. Non-standard residues stand in square brackets, D forms with d. Residues, ends and D or L forms follow the SMILES beside them. Groups on a side chain read outwards from the residue. *: point of attachment. Ethylenediamine = C(CN[*:2])N[*:1]; Hyp = O=C(O)[C@@H]1C[C@@H](O)CN1; Phg = N[C@H](C(=O)O)c1ccccc1; CO = O=C([*:1])[*:2]; Bn = c1ccc(C*)cc1

Columns and labels:
Rac = Rac (Homo sapiens, UniProt P63000); conditions: cited from earlier work
E. coli K-12 MG1655 = assay: Antibiotic potentiation primary screen in nanoliter droplet microwell array (GFP growth, Bliss score); assay type: cell-based, Escherichia coli; conditions: for Primary screening prediction of synergy with tetracycline: compound 100 μM x tetracycline; for Primary screening call, pilot phase: pilot phase of screen; for Interaction between Tedizolid and Pasireotide (relative GFP): each 100 μM, same microwell array, FIG. 34
Method: To perform the antibiotic potentiation screen, each microwell chip received droplets containing a total of 64 input conditions, with 32 held constant across all chips, and 32 that vary on each chip (FIG. 3F). The first 32, held fixed, consisted of 30 antibiotic conditions (10 antibiotics×3 concentrations, no cells), and 2 media controls (no cells). The second 32 consisted of 1-2 positive controls (sulbactam 20 μM, + cells; or erythromycin 5 μM, + cells), 1-2 negative blank controls (+ cells), 2-4 media controls (+ cells), and 24-28 variable compounds (100 μM, + cells). All conditions were in cation-adjusted Mueller Hinton broth media, 2% DMSO (all concentrations reported are final concentrations).
This setup allowed the screen to be performed in a divide-and-conquer format. The repurposing compound library is composed of 4,160 compounds across 52 96-well plates (80 compounds per plate, with controls in column 1 and 12). Each 96-well plate was divided into 3 groups of 32, each run on a separate chip but pooled with the same set of antibiotics-carrying droplets.
E. coli K-12 MG1655 with plasmid-mediated constitutive expression of GFP was prepared as described above, and added to all conditions described as “+ cells” just prior to emulsification. After loading, imaging, and merging, microwell arrays were incubated at 37° C. (static), and then later imaged again to measure growth by GFP fluorescence.
To estimate synergy between compounds and antibiotics, the Bliss Independence metric was used.
The net growth inhibition for antibiotic A from microwells carrying an antibiotic A (no cells) droplet, and a media (+ cells) droplet were estimated. The net growth inhibition of a screening compound from microwells carrying compound B (+ cells) droplet, and a media (no cells) droplet were also estimated. All growth values were normalized to microwells containing a pair of media (+ cells) and media (no cells) droplets, and estimated synergy using the Bliss Independence metric. Since each antibiotic was present at 3 concentrations, a metric was summed for the compound across each of the 3 conditions to yield a final metric called “Bliss Score.” Compounds with net growth inhibition exceeding 80% were removed from analysis.
To estimate the uncertainty in the Bliss Score measurement, all microwells in the array were bootstrap resampled (100 iterations) to the number of counted for each pair of inputs and recomputed Bliss Scores to estimate a sampling distribution and standard error.

[1] = tested on: recombinant, homomeric GluR1 and GluR3 receptors; conditions: cited from earlier work
[2] = tested on: Native AMPA/kainate receptors, pyramidal neurons; conditions: cited from earlier work
[3] = tested on: Native AMPA/kainate receptors, interneurons; conditions: cited from earlier work
[4] = biological target: T1, receptors containing edited GluR2 subunits (Homo sapiens, UniProt P42262, Q607R); conditions: 100 microM compound; n=5 oocytes; Vh −80 mV; cited from earlier work
T1 construct: host or cells: Xenopus oocytes expressing recombinant receptors
T1 sequence (P42262 25-883 Q607R): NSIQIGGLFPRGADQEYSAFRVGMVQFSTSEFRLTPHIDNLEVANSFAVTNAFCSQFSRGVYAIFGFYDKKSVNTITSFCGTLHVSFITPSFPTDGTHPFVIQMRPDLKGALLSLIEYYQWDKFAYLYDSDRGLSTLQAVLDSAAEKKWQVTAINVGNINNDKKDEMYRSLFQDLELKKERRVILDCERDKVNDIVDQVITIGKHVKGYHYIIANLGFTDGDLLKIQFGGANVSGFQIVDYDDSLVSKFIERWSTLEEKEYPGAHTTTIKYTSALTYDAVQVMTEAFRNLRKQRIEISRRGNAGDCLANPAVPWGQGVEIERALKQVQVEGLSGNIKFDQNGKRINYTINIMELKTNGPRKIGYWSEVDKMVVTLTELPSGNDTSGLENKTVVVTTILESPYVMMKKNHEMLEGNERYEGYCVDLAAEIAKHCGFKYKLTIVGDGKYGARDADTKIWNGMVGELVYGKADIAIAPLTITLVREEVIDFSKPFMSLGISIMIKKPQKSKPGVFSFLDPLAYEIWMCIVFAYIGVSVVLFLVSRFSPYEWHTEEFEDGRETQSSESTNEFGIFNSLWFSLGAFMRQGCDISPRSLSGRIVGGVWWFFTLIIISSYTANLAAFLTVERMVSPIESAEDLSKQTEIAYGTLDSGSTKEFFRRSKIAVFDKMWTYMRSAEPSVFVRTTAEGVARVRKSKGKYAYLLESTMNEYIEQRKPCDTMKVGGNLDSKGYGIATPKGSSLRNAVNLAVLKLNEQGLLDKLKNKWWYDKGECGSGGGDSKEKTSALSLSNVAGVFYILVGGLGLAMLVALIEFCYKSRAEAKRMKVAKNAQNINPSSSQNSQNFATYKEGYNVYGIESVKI

[5] = 416 COPD patients; dry-powder inhaler; cited from earlier work
[6] = year-long trial; cited from earlier work
[7] = 12 weeks, cited from earlier work
[8] = cited from earlier work
somatostatin receptor 5 = somatostatin receptor 5 (Homo sapiens, UniProt P35346); conditions: cited from earlier work
Sequence of somatostatin receptor 5 (P35346 whole entry): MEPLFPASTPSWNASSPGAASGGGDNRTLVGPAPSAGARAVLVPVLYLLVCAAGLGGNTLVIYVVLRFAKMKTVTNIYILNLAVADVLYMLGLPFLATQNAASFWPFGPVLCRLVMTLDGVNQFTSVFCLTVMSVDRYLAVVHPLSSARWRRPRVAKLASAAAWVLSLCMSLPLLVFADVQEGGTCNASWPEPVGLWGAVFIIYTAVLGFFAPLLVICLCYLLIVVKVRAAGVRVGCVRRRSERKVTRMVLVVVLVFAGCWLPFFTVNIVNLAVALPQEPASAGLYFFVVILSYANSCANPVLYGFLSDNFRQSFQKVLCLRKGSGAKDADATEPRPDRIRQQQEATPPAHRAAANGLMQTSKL

P. aeruginosa = assay: Checkerboard drug interaction assay ampicillin x sulbactam, 96-well broth culture vs microdroplet platform; assay type: cell-based, Pseudomonas aeruginosa
Description: FIG. 27 is a graph of a comparison checkerboard assay between 96-well plates and microwell array platform. Comparison of checkerboard drug interaction assay in P. aeruginosa for ampicillin and a beta-lactamase inhibitor, sulbactam.

CCn1c2ccccc2c2cc(Nc3ccnc(NCCCN4CCOCC4)n3)ccc21 (racemic) [EHop-016]
more efficient inhibitor of Rac activity than NSC23766 (Rac): 100 fold

CCN(CC)CCCC(C)Nc1nc(C)cc(Nc2ccc3nc(C)cc(N)c3c2)n1.Cl.Cl.Cl (racemic) [NSC23766]
Primary screening prediction of synergy with novobiocin (E. coli K-12 MG1655; compound 100 μM x novobiocin, E. coli): synergy predicted | Primary screening prediction of synergy with tetracycline (E. coli K-12 MG1655; E. coli): no synergy predicted

O=C(CNC(=O)c1ccc(Cl)cc1)NO [Benurestat, 2-(para-chlorobenzamide)-acetohydroxamic acid]
Primary screening call with vancomycin (E. coli K-12 MG1655; compound 100 μM x vancomycin, E. coli): screening hit | Primary screening call, pilot phase (E. coli K-12 MG1655; E. coli): hit

Br.Br.NCCCCCNCC12CC3CC(CC(C3)C1)C2 [IEM 1754, 1-ammonio-5-(1-adamantane-methylammoniopentanedibromide)]
Primary screening prediction of synergy with tetracycline (E. coli K-12 MG1655; E. coli): predicted neutral | Primary screening call, pilot phase (E. coli K-12 MG1655; E. coli): hit | times less potent than IEM-1460 ([1]; homomeric GluR1 and GluR3): 3.8 times | potency relative to IEM-1460 [2]: equipotent | times less potent than IEM-1460 [3]: approximately 3 times

C[N+](C)(C)CCCCCNCC12CC3CC(CC(C3)C1)C2 [IEM-1460, 1-trimethylammonio-5-(1-adamantane-methyl-ammoniopentanedibromide)]
IC50 ([1]; holding potential (Vh) of −80 mV, open channel block): 1.6 µM | inhibition of responses to 100 microM kainate [4]: 7.8+/−2.4% | IC50 ([2]; Vh=−80 mV): 1620 µM | IC50 ([3]; Vh=−80 mV): 1.6 µM

CCc1cc2c(cc1CC)CC(NC[C@H](O)c1ccc(O)c3[nH]c(=O)ccc13)C2 [Indacaterol]
Primary screening call with erythromycin (E. coli K-12 MG1655; compound 100 μM x erythromycin, E. coli): screening hit | FEV1 (both trough and AUC) compared to placebo [5]: statistically improved | improving FEV1 compared with twice-daily formoterol [6]: significantly more effective | effect on FEV1 compared with tiotropium [7]: no statistical difference | St. George's Respiratory Questionnaire (SGRQ) total score ([7]; vs tiotropium): greater improvements | transition dyspnoea index (TDI) total score ([7]; vs tiotropium): greater improvements

C[C@@H](O)[C@@H]1NC(=O)[C@H](CCCCN)NC(=O)[C@@H](Cc2c[nH]c3ccccc23)NC(=O)[C@H](Cc2ccccc2)NC(=O)[C@@H](NC(=O)[C@H](N)Cc2ccccc2)CSSC[C@@H](C(=O)N[C@H](CO)[C@@H](C)O)NC1=O [Octreotide]
half-life [8]: 1.5 h

NCCCC[C@@H]1NC(=O)[C@@H](Cc2c[nH]c3ccccc23)NC(=O)[C@H](c2ccccc2)NC(=O)[C@@H]2C[C@@H](OC(=O)NCCN)CN2C(=O)[C@H](Cc2ccccc2)NC(=O)[C@H](Cc2ccc(OCc3ccccc3)cc2)NC1=O [Pasireotide, cyclo[{4-(NH2-C2H4-NH—CO—O-)Pro}-Phg-DTrp-Lys-Tyr(4-Bzl)-Phe]] (cyclo([Hyp]([CO-Ethylenediamine])[Phg][dW]KY(Bn)F))
Interaction between Tedizolid and Pasireotide (relative GFP) (E. coli K-12 MG1655): synergistic interaction | increased affinity to somatostatin receptor 5 compared to other somatostatin analogs (somatostatin receptor 5): 40 fold

Cn1nnc(-c2ccc(-c3ccc(N4C[C@H](CO)OC4=O)cc3F)cn2)n1 [Tedizolid]
Interaction between Tedizolid and Pasireotide (relative GFP) (E. coli K-12 MG1655): synergistic interaction

CC[C@H]1OC(=O)[C@H](C)[C@@H](O[C@H]2C[C@@](C)(OC)[C@@H](O)[C@H](C)O2)[C@H](C)[C@@H](O[C@@H]2O[C@H](C)C[C@H](N(C)C)[C@H]2O)[C@](C)(O)C[C@@H](C)C(=O)[C@H](C)[C@@H](O)[C@]1(C)O [erythromycin]
Bliss score with tetracycline (E. coli K-12 MG1655; positive control, expected value, erythromycin 5 μM x tetracycline, E. coli): ~ 0.5

CC1(C)[C@H](C(=O)O)N2C(=O)C[C@H]2S1(=O)=O [sulbactam]
Bliss score with ampicillin (E. coli K-12 MG1655; positive control, expected value, sulbactam 20 μM x ampicillin, E. coli): ~ 1 | FIC with ampicillin (P. aeruginosa; 96-well broth culture): <= 0.5 | FIC with ampicillin (P. aeruginosa; microdroplet platform): <= 0.3125
